Drawing on ChEMBL document CHEMBL3853357, “Discovery of a Series of 5,11-Dihydro-6H-benzo[e]pyrimido[5,4-b][1,4]diazepin-6-ones as Selective PI3K-δ/γ Inhibitors” (ACS Med Chem Lett, 2016), this text covers IC50, inhibition and Activity for 20 compounds.

The target of test [1] is T1, Phosphatidylinositol 4,5-bisphosphate 3-kinase catalytic subunit delta isoform (Homo sapiens, UniProt O00329).
T1 sequence (O00329 whole entry): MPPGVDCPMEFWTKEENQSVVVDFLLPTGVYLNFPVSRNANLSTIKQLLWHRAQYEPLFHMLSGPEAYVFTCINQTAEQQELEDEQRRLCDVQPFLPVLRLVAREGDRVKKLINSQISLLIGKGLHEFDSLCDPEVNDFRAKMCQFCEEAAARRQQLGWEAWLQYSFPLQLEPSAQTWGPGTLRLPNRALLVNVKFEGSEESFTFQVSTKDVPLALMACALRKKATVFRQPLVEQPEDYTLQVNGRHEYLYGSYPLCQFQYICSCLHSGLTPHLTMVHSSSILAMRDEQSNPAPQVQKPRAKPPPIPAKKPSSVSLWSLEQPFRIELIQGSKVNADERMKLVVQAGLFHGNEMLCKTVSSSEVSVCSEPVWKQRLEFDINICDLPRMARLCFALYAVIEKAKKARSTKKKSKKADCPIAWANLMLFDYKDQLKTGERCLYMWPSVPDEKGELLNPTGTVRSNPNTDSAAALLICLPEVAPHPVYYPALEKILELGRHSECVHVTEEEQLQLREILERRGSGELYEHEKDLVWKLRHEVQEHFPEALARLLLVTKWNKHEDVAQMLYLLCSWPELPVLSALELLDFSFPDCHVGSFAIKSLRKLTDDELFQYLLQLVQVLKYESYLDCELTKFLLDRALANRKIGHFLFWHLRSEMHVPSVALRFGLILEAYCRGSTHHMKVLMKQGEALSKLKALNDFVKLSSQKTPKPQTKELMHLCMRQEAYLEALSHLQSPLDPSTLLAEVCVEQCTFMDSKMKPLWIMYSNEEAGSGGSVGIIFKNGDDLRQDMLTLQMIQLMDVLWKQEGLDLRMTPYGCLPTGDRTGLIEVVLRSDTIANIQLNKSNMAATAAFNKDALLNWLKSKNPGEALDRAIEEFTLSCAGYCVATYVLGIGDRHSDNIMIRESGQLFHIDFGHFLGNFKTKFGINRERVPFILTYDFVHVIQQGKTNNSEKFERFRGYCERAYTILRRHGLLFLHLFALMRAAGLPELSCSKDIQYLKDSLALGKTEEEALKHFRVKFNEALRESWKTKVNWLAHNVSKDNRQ
In words: Inhibition of human PI3Kdelta (R108 to Q1044 residues) expressed in mammalian expression system incubated for 60 mins by ADAPTA assay.

The target of test [2] is Phosphatidylinositol 4,5-bisphosphate 3-kinase catalytic subunit gamma isoform (Homo sapiens, UniProt P48736). Nature of the test: Inhibition of human PI3Kgamma (S144 to A1102 residues) expressed in mammalian expression system incubated for 60 mins by ADAPTA assay.
Chain of Phosphatidylinositol 4,5-bisphosphate 3-kinase catalytic subunit gamma isoform (P48736 whole entry, the tested form may be a part, canonical isoform): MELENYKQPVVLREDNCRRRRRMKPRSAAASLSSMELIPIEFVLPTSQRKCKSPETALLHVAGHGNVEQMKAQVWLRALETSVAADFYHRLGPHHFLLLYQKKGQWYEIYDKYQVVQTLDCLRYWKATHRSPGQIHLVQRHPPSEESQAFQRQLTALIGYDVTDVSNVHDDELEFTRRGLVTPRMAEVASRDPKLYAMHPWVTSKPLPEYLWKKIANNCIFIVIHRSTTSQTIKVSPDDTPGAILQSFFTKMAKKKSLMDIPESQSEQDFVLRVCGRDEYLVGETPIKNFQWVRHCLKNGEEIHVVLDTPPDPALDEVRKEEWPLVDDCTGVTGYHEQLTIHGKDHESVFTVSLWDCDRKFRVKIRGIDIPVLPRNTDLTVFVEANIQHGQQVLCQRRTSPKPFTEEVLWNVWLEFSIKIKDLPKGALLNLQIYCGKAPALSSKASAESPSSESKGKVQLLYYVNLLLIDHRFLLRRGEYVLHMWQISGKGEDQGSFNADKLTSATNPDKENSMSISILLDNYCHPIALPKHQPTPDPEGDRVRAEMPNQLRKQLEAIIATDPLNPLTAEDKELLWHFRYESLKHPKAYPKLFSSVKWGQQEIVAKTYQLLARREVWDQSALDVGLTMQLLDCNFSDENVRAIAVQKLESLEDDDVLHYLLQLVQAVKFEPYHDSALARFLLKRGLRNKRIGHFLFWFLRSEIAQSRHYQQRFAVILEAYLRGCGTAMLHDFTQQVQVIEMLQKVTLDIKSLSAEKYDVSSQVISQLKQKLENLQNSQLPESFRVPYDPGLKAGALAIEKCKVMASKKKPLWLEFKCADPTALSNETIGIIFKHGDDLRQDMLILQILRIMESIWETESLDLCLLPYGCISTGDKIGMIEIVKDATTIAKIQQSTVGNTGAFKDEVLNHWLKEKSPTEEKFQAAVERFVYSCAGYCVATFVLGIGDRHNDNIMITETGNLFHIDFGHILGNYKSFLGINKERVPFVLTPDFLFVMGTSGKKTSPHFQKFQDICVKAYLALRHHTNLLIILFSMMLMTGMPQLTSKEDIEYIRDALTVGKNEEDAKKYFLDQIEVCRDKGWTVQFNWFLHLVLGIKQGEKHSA
A short description of test [3]: (§1) Antiproliferative activity against patient-derived IgM-stimulated CLL cells after 3 days by CellTiter-Glo assay. In kind it is functional, cell-based. As to conditions: Homo sapiens, 72 h.
The target of test [4] is T2, Aurora kinase A (Homo sapiens, UniProt O14965).
T2 sequence (O14965 whole entry): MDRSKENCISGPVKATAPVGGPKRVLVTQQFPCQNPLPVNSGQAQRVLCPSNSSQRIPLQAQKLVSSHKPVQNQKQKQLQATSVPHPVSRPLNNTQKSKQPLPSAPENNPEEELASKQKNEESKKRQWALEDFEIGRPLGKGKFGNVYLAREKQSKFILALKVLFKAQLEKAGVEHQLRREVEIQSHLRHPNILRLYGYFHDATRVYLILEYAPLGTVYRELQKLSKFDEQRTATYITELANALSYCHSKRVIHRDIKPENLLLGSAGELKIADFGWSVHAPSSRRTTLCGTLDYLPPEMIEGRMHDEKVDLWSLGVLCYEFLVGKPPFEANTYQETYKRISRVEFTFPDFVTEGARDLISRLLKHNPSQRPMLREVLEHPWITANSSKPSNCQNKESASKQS
Nature of the test: Inhibition of human Aurora kinase A (E122 to K401 residues) expressed in mammalian expression system by Z'LYTE assay.

The target of test [5] is Phosphatidylinositol 4,5-bisphosphate 3-kinase catalytic subunit beta isoform (Homo sapiens) (UniProt P42338). In words: Inhibition of p110beta in HMEC assessed as reduction in Akt phosphorylation at Thr-308 residue at 0.01 to 1 uM after 1 hr by Western blot analysis. For orientation: Immunoblotting shows a protein as a band on a membrane.
Chain of Phosphatidylinositol 4,5-bisphosphate 3-kinase catalytic subunit beta isoform (Homo sapiens) (P42338 whole entry, looked up, canonical isoform): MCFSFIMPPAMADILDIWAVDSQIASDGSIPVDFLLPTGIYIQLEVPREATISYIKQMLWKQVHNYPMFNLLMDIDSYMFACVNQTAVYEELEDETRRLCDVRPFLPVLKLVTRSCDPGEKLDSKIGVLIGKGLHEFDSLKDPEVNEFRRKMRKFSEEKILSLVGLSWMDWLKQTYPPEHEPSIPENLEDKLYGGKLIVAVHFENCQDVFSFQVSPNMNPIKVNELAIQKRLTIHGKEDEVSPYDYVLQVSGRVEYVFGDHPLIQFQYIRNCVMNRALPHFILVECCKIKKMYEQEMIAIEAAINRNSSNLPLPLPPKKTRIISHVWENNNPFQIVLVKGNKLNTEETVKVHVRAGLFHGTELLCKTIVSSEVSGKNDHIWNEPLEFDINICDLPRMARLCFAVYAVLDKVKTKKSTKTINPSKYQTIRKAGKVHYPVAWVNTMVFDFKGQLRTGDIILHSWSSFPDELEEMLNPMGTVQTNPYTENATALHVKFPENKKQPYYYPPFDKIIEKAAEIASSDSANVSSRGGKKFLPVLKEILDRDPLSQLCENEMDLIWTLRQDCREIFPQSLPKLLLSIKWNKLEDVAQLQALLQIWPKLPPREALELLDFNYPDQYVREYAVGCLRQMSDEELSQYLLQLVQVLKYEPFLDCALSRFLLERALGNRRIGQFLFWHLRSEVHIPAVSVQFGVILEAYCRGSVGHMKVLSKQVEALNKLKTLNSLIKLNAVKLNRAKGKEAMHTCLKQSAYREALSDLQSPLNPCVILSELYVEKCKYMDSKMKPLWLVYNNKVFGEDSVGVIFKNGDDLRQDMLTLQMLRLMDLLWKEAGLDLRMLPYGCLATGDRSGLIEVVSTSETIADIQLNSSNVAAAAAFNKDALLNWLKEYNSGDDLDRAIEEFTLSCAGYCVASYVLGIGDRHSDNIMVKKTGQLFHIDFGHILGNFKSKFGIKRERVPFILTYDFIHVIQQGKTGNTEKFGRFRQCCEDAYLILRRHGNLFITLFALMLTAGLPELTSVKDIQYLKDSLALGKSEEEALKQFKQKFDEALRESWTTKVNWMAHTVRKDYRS
Test [6] in a line: Antiproliferative activity against human Jurkat cells after 3 days by CellTiter-Glo assay. In kind it is functional, cell-based. The note with it: 72 h.
In test [7] the target is Phosphatidylinositol 4,5-bisphosphate 3-kinase catalytic subunit beta isoform (Homo sapiens) (UniProt P42338). In words: Inhibition of p110beta in HMEC assessed as reduction in Akt phosphorylation at Ser-473 residue at 0.01 to 1 uM after 1 hr by Western blot analysis.
The target is the same in test [8]. Nature of the test: Inhibition of p110beta in HMEC assessed as reduction in S6RP phosphorylation at Ser-235/236 residue at 0.01 to 1 uM after 1 hr by Western blot analysis.
Test [9] is described as follows: Antiproliferative activity against human MOLM14 cells after 3 days by CellTiter-Glo assay. The test is classed as functional, cell-based. The note with it: MOLM-14, 72 h. Background: ATP-based viability assays read luminescence as a measure of living cells.
Test [10] in a line: Antiproliferative activity against human MV4-11 cells after 3 days by CellTiter-Glo assay. The test is classed as functional, cell-based. The note with it: MV4-11, 72 h.
Test [11] can be described thus: Antiproliferative activity against human Loucy cells after 3 days by CellTiter-Glo assay. The test is classed as functional, cell-based. The note with it: 72 h.
Test [12] can be described thus: Antiproliferative activity against human MOLT4 cells after 3 days by CellTiter-Glo assay. The test is classed as functional, cell-based. The note with it: MOLT-4, 72 h.
Test [13] deals with CLL. The test is described as §1. The test is classed as functional, cell-based. As to conditions: Homo sapiens.
Test [14] addresses T3, Phosphatidylinositol 5-phosphate 4-kinase type-2 gamma (Homo sapiens) (UniProt Q8TBX8).
T3 sequence (whole entry): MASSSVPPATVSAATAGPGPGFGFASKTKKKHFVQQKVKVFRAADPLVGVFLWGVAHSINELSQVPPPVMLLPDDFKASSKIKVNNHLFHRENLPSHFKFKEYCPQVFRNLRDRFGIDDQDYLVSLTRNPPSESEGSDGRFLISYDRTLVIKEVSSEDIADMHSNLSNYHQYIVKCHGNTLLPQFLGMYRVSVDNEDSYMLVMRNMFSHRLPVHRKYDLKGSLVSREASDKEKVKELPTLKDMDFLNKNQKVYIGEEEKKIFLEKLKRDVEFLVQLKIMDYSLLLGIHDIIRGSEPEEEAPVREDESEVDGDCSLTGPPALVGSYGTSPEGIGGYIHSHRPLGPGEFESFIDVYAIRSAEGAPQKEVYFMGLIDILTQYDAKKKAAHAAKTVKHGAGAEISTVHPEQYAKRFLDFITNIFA
Nature of the test: Inhibition of human PIP5K2C (M1 to A421 residues) expressed at 1 uM.

Test [15] deals with Aurora kinase B (Homo sapiens, UniProt Q96GD4). Nature of the test: Inhibition of human Aurora kinase B (D25 to A303 residues) expressed in mammalian expression system by Z'LYTE assay.
Chain of Aurora kinase B (Q96GD4 whole entry, the tested form may be a part): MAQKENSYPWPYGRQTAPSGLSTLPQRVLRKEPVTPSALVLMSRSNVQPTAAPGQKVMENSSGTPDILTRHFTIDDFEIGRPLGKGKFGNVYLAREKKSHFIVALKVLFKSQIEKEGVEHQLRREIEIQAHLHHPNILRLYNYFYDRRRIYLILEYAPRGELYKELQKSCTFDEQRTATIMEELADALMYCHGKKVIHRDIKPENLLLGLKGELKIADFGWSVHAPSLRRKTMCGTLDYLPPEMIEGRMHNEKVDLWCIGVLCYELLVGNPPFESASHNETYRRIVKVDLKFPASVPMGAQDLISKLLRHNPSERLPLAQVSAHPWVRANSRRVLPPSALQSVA

The structures appear in SMILES notation. The source made the active and inactive calls. The calls are words filed in the database; no cut-off is given here.

The term IC50 denotes the concentration that gives 50% inhibition. The low end stands for greater potency in that assay, the high end for weaker potency in that assay. As for `C=CC(=O)Nc1ccc(NS(=O)(=O)c2ccc(Nc3ncc4c(n3)N(C)c3ccc(C)cc3C(=O)N4C)cc2)cc1`, the 50% inhibitory concentration (IC50) in test [1] stood at 96 nM; in test [2], 310 nM.
Regarding `CC[C@H](Nc1ncnc2[nH]cnc12)c1nc2cccc(F)c2c(=O)n1-c1ccccc1` [IDELALISIB], the IC50 in [3] was above 10000 nM.
For `Cc1ccc2c(c1)C(=O)N(C)c1cnc(Nc3ccc(S(=O)(=O)N4CCC(O)CC4)cc3)nc1N2C`, the IC50 in test [1] worked out at 41 nM; in test [2], 58 nM.
On the same counts, the results for `C=CC(=O)Nc1cccc(NS(=O)(=O)c2cccc(Nc3ncc4c(n3)N(C)c3ccc(C)cc3C(=O)N4C)c2)c1` are 39 nM and 330 nM.
`C=CC(=O)NC1CCN(S(=O)(=O)c2cccc(Nc3ncc4c(n3)N(C)c3ccc(C)cc3C(=O)N4C)c2)CC1`: the IC50 was determined as 20 nM in test [1], 350 nM in test [4] and 120 nM in [2].
Regarding `C=CC(=O)Nc1cccc(NS(=O)(=O)c2ccc(Nc3ncc4c(n3)N(C)c3ccc(C)cc3C(=O)N4C)cc2)c1`, the IC50 in test [1] was found to be 440 nM; in test [2] it was 340 nM.
In the case of `C[C@H](Nc1ncnc2nc[nH]c12)c1cc2cccc(Cl)c2c(=O)n1-c1ccccc1` [DUVELISIB], the inhibition result in test [5], in [7] and in test [8] was “Active” each time. Further, the IC50 in [6] is 1900 nM; in test [9], 1200 nM; in test [10] it was 4400 nM; in test [3], above 10000 nM; in [11] it was 980 nM; in test [12] it was 2300 nM.
In the case of `CCC(=O)N1CCN(S(=O)(=O)c2cccc(Nc3ncc4c(n3)N(C)c3ccc(C)cc3C(=O)N4C)c2)CC1`, the IC50 in test [1] was 1.7 nM; in test [2] it was 11 nM; in test [6], 1600 nM; in test [9], 610 nM; in test [10], 960 nM; in test [3], 3000 nM. The IC50 was found to be 720 nM in [11] and 1200 nM in test [12]. In test [13], the Activity result is “Dose-dependent effect”.
As to `Cc1ccc2c(c1)C(=O)N(C)c1cnc(Nc3cccc(S(N)(=O)=O)c3)nc1N2C`, the IC50 in test [1] was found to be 76 nM; in test [2] it was 110 nM.
For the compound `C=CC(=O)N1CCN(S(=O)(=O)c2cccc(Nc3ncc4c(n3)N(C)c3ccc(C)cc3C(=O)N4C)c2)CC1`, the IC50 in [1] was determined as 1.5 nM; in test [2] it was 2.8 nM; in [6], 166 nM; in test [12] it was 33 nM. The inhibition entry in test [14] is “Active”.
Turning to `Cc1ccc2c(c1)C(=O)N(C)c1cnc(Nc3ccc(S(N)(=O)=O)cc3)nc1N2C`, the IC50 in test [1] turned out to be 30 nM; in test [4], 16 nM; in test [2], 20 nM; in [15], 4.2 nM.
Regarding `C=CC(=O)NC1CCN(S(=O)(=O)c2ccc(Nc3ncc4c(n3)N(C)c3ccc(C)cc3C(=O)N4C)cc2)CC1`, the figures for the IC50 in test [1] and in test [2] were 120 nM and 49 nM, respectively.
Regarding `Cc1ccc2c(c1)C(=O)N(C)c1cnc(Nc3cccc(S(=O)(=O)N4CCN(C)CC4)c3)nc1N2C`, the figures for the IC50 in [1] and in test [2] were 51 nM and 560 nM, respectively.
With `Cc1cc(S(N)(=O)=O)ccc1Nc1ncc2c(n1)N(C)c1ccccc1C(=O)N2C`, the IC50 in test [1] was determined as 820 nM; in test [4], 4900 nM; in test [2] it was 2400 nM; in [15], 9400 nM.
For `Cc1ccc2c(c1)C(=O)N(C)c1cnc(Nc3ccc(S(=O)(=O)N4CCN(C)CC4)cc3)nc1N2C`, the IC50 in test [1] came to 2600 nM; in [2] it was 3300 nM.
Take `Cc1ccc2c(c1)C(=O)N(C)c1cnc(Nc3cccc(S(=O)(=O)N4CCC(O)CC4)c3)nc1N2C`: the IC50 was 2.1 nM in test [1]; 6.5 nM in test [2]; 1400 nM in test [6]; 1000 nM in test [9]; 620 nM in test [10]; above 10000 nM in test [3]. Besides, the half-inhibitory concentration (IC50) worked out at 350 nM in test [11] and 1300 nM in [12].
For the compound `CN1C(=O)c2ccccc2N(C)c2nc(Nc3ccc(S(N)(=O)=O)cc3)ncc21`, the IC50 in test [1] was 49 nM; in [4], 4.8 nM; in [2], 15 nM; in test [15] it was 13 nM.
On the same counts, the results for `CN1C(=O)c2ccccc2N(C)c2nc(Nc3cccc(S(N)(=O)=O)c3)ncc21` are 4.1 nM, 2.1 nM, 4.3 nM and 4.6 nM.
`C=CC(=O)Nc1ccc(NS(=O)(=O)c2cccc(Nc3ncc4c(n3)N(C)c3ccc(C)cc3C(=O)N4C)c2)cc1`: the IC50 in [1] was 29 nM; in test [2], 15 nM.
Taken in the same sequence, the figures for `C=CC(=O)N1CCN(S(=O)(=O)c2ccc(Nc3ncc4c(n3)N(C)c3ccc(C)cc3C(=O)N4C)cc2)CC1` were 230 nM and 110 nM.
